Reference: US6433022B1, “Spermicide” (Medical Research Council, priority 1997, dated 2002)

How the values were obtained:
human sperm = assay: Effect of quinones on sperm motility; type: cell-based
Procedure: Following the preparation of spermatozoa by standard Percoll gradient they were resuspended in homologous seminal plasma to a concentration of 20 million per ml, immediately prior to the beginning of the experiment. 50 μl of the sperm suspension was placed in an eppendorf tube, and the quinone was either added alone or in combination with other reagents, for example, KI, HRP (Horseradish Peroxidase), BHT (butylated hydroxytoluene) etc. depending on the experiment. The volume was made up to 100 μl with BWW/PVA.
The quinone was always the final reagent to be added. […] The sample was gently agitated and 10 μl was placed on a slide and a motility was scored. The aim was to score a motility approximately 20 seconds following the addition of the quinone. There were two controls set up, one motility count taken at the beginning of the experiment (initial control) and one motility count taken at the end of the experiment (final control). The controls consisted of 50 μl of the sperm suspension followed by the addition of 50 μl BWW/PVA. The reason for having two controls was to observe if any changes in sperm motility had occurred simply as a factor of time, i.e. from residing in seminal plasma for a long duration. At all times during the experiment, the spermatozoa were incubated in a hot box at 24° C. All motility experiments were carried out on sperm suspended in seminal plasma unless otherwise stated.

[1] = test system: spermatozoa in seminal plasma; assay: Lucigenin-dependent chemiluminescence detection of quinone-induced superoxide; type: cell-based, human; settings: increasing doses incl. 25 μM and 50 μM; FIG. 1b
Text: ROS generation was monitored by luminometry employing the chemiluminescence probes lucigenin and luminol. Lucigenin is sensitive to the presence of superoxide anion and was used to monitor the free radical responses to NAD(P)H. Luminol, when used in conjunction with horseradish peroxidase (HRP; Sigma Type Vl, 288 U/mg), detects mainly hydrogen peroxide (Aitken et al., 1992) and was used to monitor the responses of spermatozoa to PMA (phorbol 12-myristate, 13-acetate), an activator of protein kinase C. NAD(P)H could not be used with the luminol-peroxidase system because of the generation of high background signals, presumably due to the oxidase reactions of HRP. Photon emission was monitored at 37° C. using the Bermold 9505B luminometer (Berthold, Wilbad, Germany) featuring 6 electronically compensated, peltier cooled, photomultipliers and the results expressed as counts/minute. For both of the probes used, 400 μl of spermatozoa, at a concentration of 10×10^6/ml, were placed in a 3 ml plastic, flat-bottomed plastic tube. For luminol-based reactions, the spermatozoa were suspended in BWW supplemented with Albuminar, but when lucigenin was used the Albuminar was replaced with 1 mg/ml polyvinyl alcohol. […] The luminometer results were recorded as continuous traces and as integrated photon counts over a fixed period of time (5 min). […]

[2] = test system: sperm, seminal plasma and serum; assay: Luminol/peroxidase-dependent chemiluminescence detection of quinone-induced H2O2; type: cell-based, human; settings: 50 μM
Text: (§1) ROS generation was monitored by luminometry employing the chemiluminescence probes lucigenin and luminol. Lucigenin is sensitive to the presence of superoxide anion and was used to monitor the free radical responses to NAD(P)H. Luminol, when used in conjunction with horseradish peroxidase (HRP; Sigma Type Vl, 288 U/mg), detects mainly hydrogen peroxide (Aitken et al., 1992) and was used to monitor the responses of spermatozoa to PMA (phorbol 12-myristate, 13-acetate), an activator of protein kinase C. NAD(P)H could not be used with the luminol-peroxidase system because of the generation of high background signals, presumably due to the oxidase reactions of HRP. Photon emission was monitored at 37° C. using the Bermold 9505B luminometer (Berthold, Wilbad, Germany) featuring 6 electronically compensated, peltier cooled, photomultipliers and the results expressed as counts/minute. For both of the probes used, 400 μl of spermatozoa, at a concentration of 10×10^6/ml, were placed in a 3 ml plastic, flat-bottomed plastic tube. For luminol-based reactions, the spermatozoa were suspended in BWW supplemented with Albuminar, but when lucigenin was used the Albuminar was replaced with 1 mg/ml polyvinyl alcohol. A 4 μl aliquot of a 25 mM stock solution of either luminol or lucigenin m-dimethyl sulphoxide (DMSO), was then added to the cell suspension, resulting in a final probe concentration of 250 μM. For the measurement of hydrogen peroxide generation by intact cells, luminol-dependent chemiluminescence was enhanced by addition of 8 μl of HRP, freshly prepared at a concentration of 2 mg/ml in PBS, to give a final HRP concentration of 11.52 U/ml. The luminometer results were recorded as continuous traces and as integrated photon counts over a fixed period of time (5 min).
Luminol alone measures H2O2; however when used alongside HRP, it can measure the production of H2O2 internally and externally. The sperm were prepared by standard percoll gradient and resuspended in seminal plasma or BWW/PVA to a concentration of 10 million cells per ml. […]

spermatozoa = assay: Effect on lipid peroxidation in spermatozoa; type: cell-based, human; settings: exposure to compound vs control
HIV-1 = assay: Virucidal activity using cell-free virus (viral adhesion assay, syncytia in C8166 cells); type: cell-based
Procedure: A simple, microtitre plate assay was developed (viral adhesion assay) in which the virus was attached to the solid phase by Pol-L-lysine Hydrobromide (PLL, Sigma). Sterile 24 and 96 well plates (Nunc) were coated for 1 hour with 50 μl of 50 μg/ml PLL at room temperature. When using 96 well microtitre plates the outer ring of wells were left uncoated and filled with 250 μl of sterile PBS to counteract the effects of evaporation. The coated wells were washed twice with sterile PBS using a Denley-4 plate washer. 25 μl of RPMI 1640 medium containing HIV-1 (50×TCID50) was added to the wells and incubated for 1 hour at room temperature. The plate was again washed twice with sterile PBS. 25 μl of varying concentrations of the candidate virucide were added to each well for 15 minutes and the virucide removed with two washes of sterile PBS. The T-lymphocyte cell line C8166, at a concentration of 4×10^4 cells in 300Fl RPMI 1640, were added to each well so that the cells formed a uniform monolayer on the adherent virus. After incubation for 72 hours, the number of syncytia in the monolayer gave an accurate measure of the amount of infectious virus present. Wells untreated with virucide were used as positive controls. […] The assay allowed the efficient removal of the candidate virucides or disinfectant and allowed the compound to be assessed for accurately determined contact times.

human spermatozoa [3] = assay: Nicotinamide dinucleotide-induced superoxide generation, lucigenin-dependent chemiluminescence; type: cell-based
Text: as §1
The ability of human spermatozoa to generate superoxide anion in response to NADPH was monitored by lucigenin-dependent chemiluminescence and compared with its non-phosphorylated and non-reduced counterparts, i.e. NADH, NADP^+ and NAD^+. In addition, the stimulatory properties of an isomer of NADPH, usually non-active in reductive biosynthesis, were examined. All pyridine nucleotides were made up to the required concentration in PBS immediately prior to use. Stock solutions of the nucleotides were made up at concentrations 10 fold higher than the required final working concentration, to allow for a 10 fold dilution on addition to the suspensions of spermatozoa.

human spermatozoa [4] = assay: Quantification of superoxide anion generation by SOD-inhibitable reduction of cytochrome C; type: cell-based; settings: 2 mM, n=5
Procedure: Superoxide anion generation was quantified spectrophotometrically via the superoxide-dependent reduction of cytochrome C (McCord and Fridovich, 1969). Spermatozoa were used at an increased concentration of 10×10^7/ml in BWW supplemented with PVA (1 mg/ml). An aliquot (400 μl) of this sperm suspension was placed in a 1 ml disposable, plastic cuvette and 50 μl of cytochrome C (Type Vl from horse heart), was added to give a final working concentration of 100 μM. The reference cuvette contained the same ingredients, except that 50 μl of SOD was added to give final concentration of 196 U/ml. Absorbance was monitored at 550 nm and the SOD-inhibitable superoxide generation calculated using an extinction coefficient for reduced cytochrome C of ε=21.1 mM^−1cm^−1.

human spermatozoa [5] = assay: Percentage motility of spermatozoa exposed to NADPH; type: cell-based; settings: doses 0.625 to 10 mM, at least 3 hr

Compound | mean motility score (human sperm; 50 μM quinone, human sperm) [%] | sperm immobilisation (human sperm; concentrations ranging from 25 μM to 100 μM) | IC50 (human sperm; human sperm in seminal plasma, motility scored approximately 20 seconds after addition, read-out: ID50, dose-dependent inhibition of sperm motility) [µM] | superoxide burst generated by spermatozoa in seminal plasma [1] | H2O2 production in seminal plasma and serum ([2]; no spermatozoa) | H2O2 production, spermatozoa in BWW ([2]; on addition of the reagent) | time of peak of slow secondary increase in H2O2 after initial exposure ([2]; spermatozoa in BWW) [min] | lipid peroxidation in spermatozoa (spermatozoa) | antiviral activity against HIV-1 (HIV-1; absence of human semen, 15 minutes contact) | antiviral activity against HIV-1, effect of semen (HIV-1; presence of human semen vs absence) | lucigenin-dependent chemiluminescent response (superoxide anion generation) (human spermatozoa [3]; 500 μM nucleotide) | increase in the chemiluminescent signal (human spermatozoa [3]; addition to spermatozoa, lucigenin, FIG. 5a) [fold] | superoxide generation rate during sudden burst (human spermatozoa [4]) | superoxide release rate after stabilisation (human spermatozoa [4]; thereafter) | percentage motility of the spermatozoa (human spermatozoa [5])
O=C1C=CC(=O)c2ccccc21 [1,4-naphthoquinone] | 0.143 | completely immobilised | ~10 | Increasing doses of this compound led to a corresponding increase in superoxide production | no such activity | instantaneous significant burst of H2O2 | 25 to 30 | lipid peroxidation did not occur | dose-dependent antiviral activity | potentiated by an order of magnitude | – | – | – | – | –
NC(=O)C1=CN([C@@H]2O[C@H](COP(=O)(O)OP(=O)(O)OC[C@H]3O[C@@H](n4cnc5c(N)ncnc54)[C@H](OP(=O)(O)O)[C@@H]3O)[C@@H](O)[C@H]2O)C=CC1 [NADPH, Dihydronicotinamide adenine dinucleotide phosphate] | – | – | – | – | – | – | – | – | – | – | burst of ROS generation | 10 | 99.52+/−9.12 pmol.min^−1. 10^6 spermatozoa | 7.65+/−0.97 pmol.min^−1. 10^6 spermatozoa | remained unchanged
